Test results: ChEMBL document CHEMBL1149209, “Synthesis and structure-activity relationship of 2-(aminoalkyl)-3,3a,8,12b-tetrahydro-2H-dibenzocyclohepta[1,2-b]furan derivatives: a novel series of 5-HT(2A/2C) receptor antagonists” (Bioorg Med Chem Lett, 2004)

Legend:
Histamine H1 receptor = Histamine H1 receptor (Homo sapiens, UniProt P35367); assay: Ability to displace [3H]pyrilamine from human cloned histamine H1 receptor expressed in CHO cells; type: cell-based
[1] = target: T1, 5-hydroxytryptamine receptor 2C (Homo sapiens, UniProt P28335); assay: Ability to displace [3H]- mesulergine from human cloned 5-hydroxytryptamine 2C receptor expressed in CHO cells; type: cell-based
T1 sequence (P28335 whole entry): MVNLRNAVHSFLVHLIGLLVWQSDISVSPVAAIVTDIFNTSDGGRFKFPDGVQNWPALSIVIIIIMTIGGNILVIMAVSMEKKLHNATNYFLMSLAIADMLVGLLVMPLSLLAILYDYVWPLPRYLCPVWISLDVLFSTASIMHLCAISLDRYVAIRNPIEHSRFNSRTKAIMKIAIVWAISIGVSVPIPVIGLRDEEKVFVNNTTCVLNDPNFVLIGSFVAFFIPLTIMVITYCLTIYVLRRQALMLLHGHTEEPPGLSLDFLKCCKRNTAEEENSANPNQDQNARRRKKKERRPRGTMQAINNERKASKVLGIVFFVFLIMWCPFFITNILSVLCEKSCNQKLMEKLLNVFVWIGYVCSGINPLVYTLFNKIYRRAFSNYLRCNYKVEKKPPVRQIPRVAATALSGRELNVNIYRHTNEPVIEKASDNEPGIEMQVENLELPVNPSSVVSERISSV

[2] = target: 5-hydroxytryptamine receptor 2A (Homo sapiens, UniProt P28223); assay: Ability to displace [125I]R91150 from human cloned 5-hydroxytryptamine 2A receptor expressed in L929 cells; type: cell-based
Rattus norvegicus = assay: Effective dose required for antagonistic activity in mCPP challenge test in male wistar rats after subcutaneous administration; type: functional; details: sc

5-hydroxytryptamine receptor 2A, sequence (P28223 whole entry): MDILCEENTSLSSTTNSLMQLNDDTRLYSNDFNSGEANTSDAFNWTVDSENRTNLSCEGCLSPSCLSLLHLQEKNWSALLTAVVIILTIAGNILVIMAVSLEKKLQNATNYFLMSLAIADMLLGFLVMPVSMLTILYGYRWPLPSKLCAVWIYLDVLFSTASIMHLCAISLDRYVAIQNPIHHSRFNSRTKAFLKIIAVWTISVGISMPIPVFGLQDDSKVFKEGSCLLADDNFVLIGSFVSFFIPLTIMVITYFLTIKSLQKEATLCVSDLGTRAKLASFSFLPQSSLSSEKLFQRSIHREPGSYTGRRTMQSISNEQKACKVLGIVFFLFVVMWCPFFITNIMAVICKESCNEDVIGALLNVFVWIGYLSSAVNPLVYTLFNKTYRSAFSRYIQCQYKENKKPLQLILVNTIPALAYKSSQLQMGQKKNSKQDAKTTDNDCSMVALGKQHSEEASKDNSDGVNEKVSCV
Histamine H1 receptor, sequence (P35367 whole entry): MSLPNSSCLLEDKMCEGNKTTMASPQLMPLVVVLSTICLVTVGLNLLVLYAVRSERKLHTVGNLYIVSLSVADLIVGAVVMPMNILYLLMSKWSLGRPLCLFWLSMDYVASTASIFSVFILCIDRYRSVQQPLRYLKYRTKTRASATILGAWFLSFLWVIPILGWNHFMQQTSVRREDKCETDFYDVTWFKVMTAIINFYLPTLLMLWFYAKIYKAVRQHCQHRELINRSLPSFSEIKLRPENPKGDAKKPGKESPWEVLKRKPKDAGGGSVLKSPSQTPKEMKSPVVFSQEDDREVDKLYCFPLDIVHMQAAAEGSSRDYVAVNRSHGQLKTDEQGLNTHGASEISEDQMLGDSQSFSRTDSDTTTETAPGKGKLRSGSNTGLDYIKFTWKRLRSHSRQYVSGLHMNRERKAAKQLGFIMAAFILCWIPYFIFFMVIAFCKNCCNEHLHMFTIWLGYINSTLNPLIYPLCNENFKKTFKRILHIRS

SMILES	Ki (Histamine H1 receptor) [nM]	Ki [1] [nM]	Ki [2] [nM]	ED50 (Rattus norvegicus) [mg/kg]
Clc1cccc(N2CCN(CC3C[C@@H]4c5ccccc5Cc5ccccc5[C@H]4O3)CC2)c1 (stereo partly specified)	471	107	56	
O=C(c1ccc(F)cc1)C1CCN(CC2C[C@@H]3c4ccccc4Cc4ccccc4[C@H]3O2)CC1 (stereo partly specified)	1.9	17	433	
OCCN1CCN(CC2C[C@@H]3c4ccccc4Cc4ccccc4[C@H]3O2)CC1 (stereo partly specified)	3.7	170	86.5	
CN1CCN(CC2C[C@@H]3c4ccccc4Sc4ccccc4[C@H]3O2)CC1 (stereo partly specified)	1.2	120	17.3	
c1ccc(C2CCN(CC3C[C@@H]4c5ccccc5Cc5ccccc5[C@H]4O3)CC2)cc1 (stereo partly specified)	29.7	42.7	1090	
CN(C)C[C@@H]1C[C@@H]2c3ccccc3Cc3ccccc3N2O1	0.64	1	2.5	0.04
CNC[C@@H]1CC2c3ccccc3Cc3ccccc3C2O1 (single isomer, unassigned)	3.5	15.9	74.1	2.2
c1ccc(C2CCN(CC3C[C@@H]4c5ccccc5Sc5ccccc5[C@H]4O3)CC2)cc1 (stereo partly specified)	47.1	239	68.7	
CNCC1C[C@@H]2c3ccccc3Cc3ccccc3[C@H]2O1 (stereo partly specified)	9.3	9.7	48.6	
CN1CCN(CC2C[C@@H]3c4ccccc4Cc4ccccc4[C@H]3O2)CC1 (stereo partly specified)	3	677	433	
c1ccc2c(c1)Cc1ccccc1[C@H]1OC(CN3CCOCC3)C[C@H]21 (stereo partly specified)	2.36	27	433	

Further lines, with some results ahead:

Ki (Histamine H1 receptor) [nM]	Ki [1] [nM]	Ki [2] [nM]	SMILES	ED50 (Rattus norvegicus) [mg/kg]
0.63	3.25	19.6	CN(C)C[C@@H]1C[C@@H]2c3ccccc3Cc3ccccc3[C@H]2O1	0.06
0.7	6.7	21.7	CN(C)CC1C[C@@H]2c3ccccc3Cc3ccccc3[C@H]2O1 (stereo partly specified)	
14	31	37	CN(C)CC1C[C@@H]2c3ccccc3Oc3ccccc3[C@H]2O1 (stereo partly specified)	
32.6	183	92.6	CN(C)CC1C[C@H]2c3ccccc3Oc3ccccc3[C@H]2O1 (stereo partly specified)	
6	12.9	80.7	CN(C)CC1C[C@@H]2c3ccccc3N(C)c3ccccc3[C@H]2O1 (stereo partly specified)	
20.6	124	1060	CN(C)CC1C[C@@H]2c3ccccc3COc3ccccc3[C@H]2O1 (stereo partly specified)	
27	166	102	CN(C)CC1C[C@H]2c3ccccc3Cc3ccccc3[C@H]2O1 (stereo partly specified)	
9.6	32.5	90.5	CN(C)CC1C[C@@H]2c3ccccc3OCc3ccccc3[C@H]2O1 (stereo partly specified)	
4.3	24.7	30.7	CN(C)CC1C[C@@H]2c3ccccc3Sc3ccccc3[C@H]2O1 (stereo partly specified)	
3.74	28	104	CN(C)C[C@@H]1C[C@H]2c3ccccc3Cc3ccccc3[C@@H]2O1	1.26
0.54	0.93	2.5	CN(C)C[C@H]1C[C@@H]2c3ccccc3Cc3ccccc3[C@H]2O1	0.04
